Laboratory results: patent publication US11542255B2, “Sulfonylureas and sulfonylthioureas as NLRP3 inhibitors” (Inflazome Limited, priority 2017, dated 2023)
Counter-ions that a name gives are not always drawn.

Assays:
[1] = target: T1, NLRP3 (Homo sapiens, UniProt Q96P20); test: THP-1 cells pyroptosis assay (LPS + nigericin, resazurin readout); format: cell-based; parameters: Seed THP-1 cells (25,000 cells/well) containing 1.0 μg/ml LPS in 40 μl of RPMI medium; host or cells: THP-1 cells; settings: NLRP3 inhibitory activity, 1.0 μg/ml LPS, 5 μM nigericin
T1 sequence (Q96P20 whole entry): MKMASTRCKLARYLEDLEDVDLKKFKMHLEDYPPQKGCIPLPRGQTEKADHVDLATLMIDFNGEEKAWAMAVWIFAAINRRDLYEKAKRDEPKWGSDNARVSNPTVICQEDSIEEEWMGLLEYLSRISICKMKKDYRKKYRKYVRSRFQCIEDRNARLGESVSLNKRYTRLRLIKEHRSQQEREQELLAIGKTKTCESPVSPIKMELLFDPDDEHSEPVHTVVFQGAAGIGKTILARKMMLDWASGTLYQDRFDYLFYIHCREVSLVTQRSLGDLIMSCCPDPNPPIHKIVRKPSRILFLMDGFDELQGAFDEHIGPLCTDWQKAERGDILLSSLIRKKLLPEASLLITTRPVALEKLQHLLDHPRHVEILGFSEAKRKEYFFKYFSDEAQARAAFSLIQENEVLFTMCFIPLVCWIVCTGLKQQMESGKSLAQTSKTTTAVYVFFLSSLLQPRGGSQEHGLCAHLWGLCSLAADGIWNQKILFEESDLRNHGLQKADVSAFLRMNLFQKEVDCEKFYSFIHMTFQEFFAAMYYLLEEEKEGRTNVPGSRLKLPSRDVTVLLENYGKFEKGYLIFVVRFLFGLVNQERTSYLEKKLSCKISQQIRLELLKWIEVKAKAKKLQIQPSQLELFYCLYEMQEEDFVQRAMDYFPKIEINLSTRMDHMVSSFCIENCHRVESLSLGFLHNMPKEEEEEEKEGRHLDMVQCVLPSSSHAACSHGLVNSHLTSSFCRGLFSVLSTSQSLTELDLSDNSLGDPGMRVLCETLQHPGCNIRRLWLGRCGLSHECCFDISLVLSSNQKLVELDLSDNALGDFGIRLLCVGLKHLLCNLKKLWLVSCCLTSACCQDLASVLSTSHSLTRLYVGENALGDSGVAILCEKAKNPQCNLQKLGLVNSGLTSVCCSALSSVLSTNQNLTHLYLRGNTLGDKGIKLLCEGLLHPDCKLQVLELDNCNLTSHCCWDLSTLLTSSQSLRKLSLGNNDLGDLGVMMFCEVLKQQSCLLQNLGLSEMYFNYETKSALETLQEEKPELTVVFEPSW
Protocol: THP-1 cells (ATCC #TIB-202) were grown in RPMI containing L-glutamine (Gibco #11835) supplemented with 1 mM sodium pyruvate (Sigma #S8636) and penicillin (100 units/ml)/streptomycin (0.1 mg/ml) (Sigma #P4333) in 10% Fetal Bovine Serum (FBS) (Sigma #F0804). The cells were routinely passaged and grown to confluency (˜10^6 cells/ml). On the day of the experiment, THP-1 cells were harvested and resuspended into RPMI medium (without FBS). The cells were then counted and viability (>90%) checked by Trypan blue (Sigma #T8154). Appropriate dilutions were made to give a concentration of 625,000 cells/ml. To this diluted cell solution was added LPS (Sigma #L4524) to give a […] Final Assay Concentration (FAC). 40 μl of the final preparation was aliquoted into each well of a 96-well plate. The plate thus prepared was used for compound screening.
The following method step-by-step assay was followed for compound screening. • 1. Seed THP-1 cells (25,000 cells/well) containing 1.0 μg/ml LPS in 40 μl of RPMI medium (without FBS) in 96-well, black walled, clear bottom cell culture plates coated with poly-D-lysine (VWR #734-0317) • 2. Add 5 μl compound (8 points half-log dilution, with 10 μM top dose) or vehicle (DMSO 0.1% FAC) to the appropriate wells • 3. Incubate for 3 hrs at 37° C. in 5% CO2 • 4. Add 5 μl nigericin (Sigma #N7143) (FAC 5 μM) to all wells • 5. Incubate for 1 hr at 37° C. and 5% CO2 • 6. At the end of the incubation period, spin plates at 300×g for 3 mins and remove supernatant • 7. Then add 50 μl of resazurin (Sigma #R7017) (FAC 100 μM resazurin in RPMI medium without FBS) and incubate plates for a further 1-2 hrs at 37° C. and 5% CO2 • 8. Plates were read in an Envision reader at Ex 560 nm and Em 590 nm • 9. IC50 data is fitted to a non-linear regression equation (log inhibitor vs response-variable slope 4-parameters)

[2] = target: T1, NLRP3; test: Human whole blood IL1β release assay (LPS + nigericin, AlphaLisa IL-1β); format: cell-based; parameters: Human whole blood in Li-heparin tubes was obtained from healthy donors from a volunteer donor panel; from tissue; host or cells: human whole blood from healthy donors; settings: NLRP3 inhibitory activity, 1 μg/ml LPS, 10 μM nigericin, IL-1β release, read-out: HWB IC50
Protocol: For systemic delivery, the ability to inhibit NLRP3 when the compounds are present within the bloodstream is of great importance. For this reason, the NLRP3 inhibitory activity of a number of compounds in human whole blood was investigated in accordance with the following protocol.
Human whole blood in Li-heparin tubes was obtained from healthy donors from a volunteer donor panel. • 1. Plate out 80 μl of whole blood containing 1 μg/ml of LPS in 96-well, clear bottom cell culture plate (Corning #3585) • 2. Add 10 μl compound (8 points half-log dilution with 10 μM top dose) or vehicle (DMSO 0.1% FAC) to the appropriate wells • 3. Incubate for 3 hrs at 37° C., 5% CO2 • 4. Add 10 μl Nigericin (Sigma #N7143) (10 μM FAC) to all wells • 5. Incubate for 1 hr at 37° C., 5% CO2 • 6. At the end of the incubation period, spin plates at 300×g for 5 mins to pellet cells and remove 20 μl of supernatant and add to 96-well v-bottom plates for IL-1β analysis (note: these plates containing the supernatants can be stored at −80° C. to be analysed at a later date) • 7. IL-1β was measured according to the manufacturer protocol (Perkin Elmer-AlphaLisa IL-1β Kit AL220F-5000) • 8. IC50 data is fitted to a non-linear regression equation (log inhibitor vs response-variable slope 4-parameters)

Compound | IC50 [1] | IC50 [2]
CC(c1cc(S(=O)(=O)NC(=O)Nc2c3c(cc4c2CCC4)CCC3)nn1C)N1CCC1 (single isomer, unassigned; enantiomer 1) [Example 26, 5-(1-(Azetidin-1-yl)ethyl)-N-((1,2,3,5,6,7-hexahydro-s-indacen-4-yl)carbamoyl)-1-methyl-1H-pyrazole-3-sulfonamide, Sodium Salt (Enantiomer 1)] | 0.04 to 0.16 µM | < 0.4 µM
CC(c1cc(S(=O)(=O)NC(=O)Nc2c3c(cc4c2CCC4)CCC3)nn1C1CC1)N(C)C (centres unmarked) [Example 22, 1-Cyclopropyl-5-(1-(dimethylamino)ethyl)-N-((1,2,3,5,6,7-hexahydro-s-indacen-4-yl)carbamoyl)-1H-pyrazole-3-sulfonamide] | < 0.04 µM | 0.4 to 0.8 µM
CC1CN(C(C)c2cc(S(=O)(=O)NC(=O)Nc3c4c(cc5c3CCC5)CCC4)nn2C)C1 (centres unmarked) [Example 29, N-((1,2,3,5,6,7-Hexahydro-s-indacen-4-yl)carbamoyl)-1-methyl-5-(1-(3-methylazetidin-1-yl)ethyl)-1H-pyrazole-3-sulfonamide] | 0.04 to 0.16 µM | 0.4 to 0.8 µM
CCn1nc(S(=O)(=O)NC(=O)Nc2c(C(C)C)cc(F)cc2C(C)C)cc1CN(C)C [Example 51, 5-((Dimethylamino)methyl)-1-ethyl-N-((4-fluoro-2,6-diisopropylphenyl)carbamoyl)-1H-pyrazole-3-sulfonamide] | 0.16 to 0.64 µM | < 0.4 µM
CN(C)C(C)(C)c1cc(S(=O)(=O)NC(=O)Nc2c3c(cc4c2CCC4)CCC3)nn1C [Example 34, 5-(2-(Dimethylamino)propan-2-yl)-N-((1,2,3,5,6,7-hexahydro-s-indacen-4-yl)carbamoyl)-1-methyl-1H-pyrazole-3-sulfonamide] | 0.04 to 0.16 µM | 0.4 to 0.8 µM
CN(C)Cc1cc(S(=O)(=O)NC(=O)Nc2c3c(cc4c2CCC4)CCC3)nn1C(C)(C)C [Example 37, 1-(tert-Butyl)-5-((dimethylamino)methyl)-N-((1,2,3,5,6,7-hexahydro-s-indacen-4-yl)carbamoyl)-1H-pyrazole-3-sulfonamide] | < 0.04 µM | 3.2 to 10 µM
CCC(c1cc(S(=O)(=O)NC(=O)Nc2c3c(cc4c2CCC4)CCC3)nn1C)N(C)C (centres unmarked) [Example 74, 5-(1-(Dimethylamino)propyl)-N-((1,2,3,5,6,7-hexahydro-s-indacen-4-yl)carbamoyl)-1-methyl-1H-pyrazole-3-sulfonamide] | < 0.04 µM | < 0.4 µM
CC(C)n1nc(S(=O)(=O)NC(=O)Nc2c3c(cc4c2CCC4)CCC3)cc1C1CCCN1C (centres unmarked) [Example 186] | < 0.04 µM | 0.4 to 0.8 µM
CCn1nc(S(=O)(=O)NC(=O)Nc2c(-c3ccnc(C#N)c3)cc(F)cc2C(C)C)cc1CN(C)C [Example 35, N-((2-(2-Cyanopyridin-4-yl)-4-fluoro-6-isopropylphenyl)carbamoyl)-5-((dimethylamino)methyl)-1-ethyl-1H-pyrazole-3-sulfonamide] | 0.04 to 0.16 µM | < 0.4 µM
CN(C)C1(c2cc(S(=O)(=O)NC(=O)Nc3c4c(cc5c3CCC5)CCC4)nn2C)CC1 [Example 58, 5-(1-(Dimethylamino)cyclopropyl)-N-((1,2,3,5,6,7-hexahydro-s-indacen-4-yl)carbamoyl)-1-methyl-1H-pyrazole-3-sulfonamide, Sodium Salt] | 0.04 to 0.16 µM | 0.8 to 1.6 µM
CCn1nc(S(=O)(=O)NC(=O)Nc2c(-c3cccc(C#N)c3)ccc3c2CCC3)cc1CN(C)C [Example 173] | 0.04 to 0.16 µM | 0.4 to 0.8 µM
CC(C)c1cc(S(=O)(=O)NC(=O)Nc2c3c(cc4c2CCC4)CCC3)nn1CCN(C)C [Example 6, 1-(2-(Dimethylamino)ethyl)-N-((1,2,3,5,6,7-hexahydro-s-indacen-4-yl)carbamoyl)-5-isopropyl-1H-pyrazole-3-sulfonamide] | 0.16 to 0.64 µM | 0.8 to 1.6 µM
CC(C)n1nc(S(=O)(=O)NC(=O)Nc2c3c(cc4c2CCC4)CCC3)nc1CN(C)C [Example 187] | < 0.04 µM | 0.8 to 1.6 µM
CN(C)C(c1cc(S(=O)(=O)NC(=O)Nc2c3c(cc4c2CCC4)CCC3)nn1C)C(F)(F)F (centres unmarked) [Example 95, 5-(˜(Dimethylamino)-2,2,2-trifluoroethyl)-N-((1,2,3,5,6,7-hexahydro-s-indacen-4-yl)carbamoyl)-1-methyl-1H-pyrazole-3-sulfonamide] | < 0.04 µM | 0.8 to 1.6 µM
COc1cc(-c2cc(F)cc(C(C)C)c2NC(=O)NS(=O)(=O)c2cc(CN(C)C)n(C)n2)ccn1 [Example 48, 5-((Dimethylamino)methyl)-N-((4-fluoro-2-isopropyl-6-(2-methoxypyridin-4-yl)phenyl)carbamoyl)-1-methyl-1H-pyrazole-3-sulfonamide] | < 0.04 µM | < 0.4 µM
CC(C)c1cc(Cl)cc(C(C)C)c1NC(=O)NS(=O)(=O)c1cc(CN(C)C)n(C(C)C)n1 [Example 55, N-((4-Chloro-2,6-diisopropylphenyl)carbamoyl)-5-((dimethylamino)methyl)-1-isopropyl-1H-pyrazole-3-sulfonamide] | 0.04 to 0.16 µM | 1.6 to 3.2 µM
COCCN(CCOC)C(=O)c1cc(S(=O)(=O)NC(=O)Nc2c(-c3ccnc(OC(C)C)c3)cc(F)cc2C(C)C)nn1C [Example 174, 3-(N-((4-Fluoro-2-(2-isopropoxypyridin-4-yl)-6-isopropyl-phenyl)carbamoyl)sulfamoyl)-N,N-bis(2-methoxyethyl)-1-methyl-1H-pyrazole-5-carboxamide, sodium salt] | 2.56 to 10 µM | 3.2 to 10 µM
COc1cc(-c2cc(F)cc(C(C)C)c2NC(=O)NS(=O)(=O)c2cc(CN(C)C)n(C(C)C)n2)ccn1 [Example 47, 5-((Dimethylamino)methyl)-N-((4-fluoro-2-isopropyl-6-(2-methoxypyridin-4-yl)phenyl)carbamoyl)-1-isopropyl-1H-pyrazole-3-sulfonamide] | 0.04 to 0.16 µM | < 0.4 µM
CC(C)n1nc(S(=O)(=O)NC(=O)Nc2c3c(cc4c2CCC4)CCC3)cc1CN(C)C [Example 68, 5-((Dimethylamino)methyl)-N-((1,2,3,5,6,7-hexahydro-s-indacen-4-yl)carbamoyl)-1-isopropyl-1H-pyrazole-3-sulfonamide] | < 0.04 µM | 0.4 to 0.8 µM
CC(C)c1cc(F)cc(-c2cnn(C)c2)c1NC(=O)NS(=O)(=O)c1cc(C(=O)N(C)C)n(C)n1 [Example 128, 3-(N-((4-Fluoro-2-isopropyl-6-(1-methyl-1H-pyrazol-4-yl)phenyl)carbamoyl)sulfamoyl)-N,N,1-trimethyl-1H-pyrazole-5-carboxamide, Sodium Salt] | 0.64 to 2.56 µM | < 0.4 µM
CCN(CC)Cc1cc(S(=O)(=O)NC(=O)Nc2c3c(cc4c2CCC4)CCC3)nn1C [Example 82, 5-((Diethylamino)methyl)-N-((1,2,3,5,6,7-hexahydro-s-indacen-4-yl)carbamoyl)-1-methyl-1H-pyrazole-3-sulfonamide, Sodium Salt] | 0.04 to 0.16 µM | 0.8 to 1.6 µM
CCn1nc(S(=O)(=O)NC(=O)Nc2c(-c3cccnc3)cc(F)c3c2CCC3)cc1CN(C)C [Example 20, 5-((Dimethylamino)methyl)-1-ethyl-N-((7-fluoro-5-(pyridin-3-yl)-2,3-dihydro-1H-inden-4-yl)carbamoyl)-1H-pyrazole-3-sulfonamide] | < 0.04 µM | < 0.4 µM
